# Data: patent publication US10064942B2, “Copper-cysteamine and methods of use” (THE BOARD OF REGENTS, THE UNIVERSITY OF TEXAS SYSTEM, priority 2013, dated 2018)
# Experiments:
# [1] = tested on: human breast cancer (MCF-7) cells; experiment: UV light (350 nm) destruction of MCF-7 cells, fluorescence imaging; format: cell-based; settings: MCF-7 cells exposed to Cu-Cy and irradiated with UV light (350 nm)
# Description: FIGS. 12A-12D depict the comparison of UV light (350 nm) destruction on human breast cancer (MCF-7) cells without (top row, FIG. 12A and FIG. 12B) and with (bottom row, FIG. 12C and FIG. 12D) Cu-Cy crystals. […] The scale bar is always 100 μm.
# Photo-induced toxicity was then applied to cancer cells.
# MCF-7 tumors = format: in vivo, nude mice
# Experimental: A suspension of 10×10^6MCF-7 cancer cell lines was injected subcutaneously into flanks on both shoulder and leg area of nude mice. Mice were monitored on a daily basis for the growth of tumors (FIG. 24). […] Saline (10 μL, as control, left shoulder) and Cu-Cy with concentration about 0.8 mg/mL (10 μL-right shoulder, 15 μL-left leg and 20 μL-right leg) were injected intra-tumorally. At one minute post-injection, mice were anesthetized with 2% (v/v) isofluorane, and tumors were irradiated with an X-ray dose of 5 Gy. Without X-ray treatment (top row), the tumors grew as time progressed, and there was no apparent size difference among Cu-Cy dosages of 10, 15, and 20 μl. Meanwhile, the tumors with no Cu-Cy (saline only) treatment were larger than the tumors with Cu-Cy treatment. […] The animals were sacrificed via CO2 inhalation and cervical […] on the day 13 of tumor growth. Absent X-ray radiation (top row), the tumors without Cu-Cy treatment grew to a somewhat larger volume than those treated by Cu-Cy, which indicates the minor toxicity from the Cu-Cy particles themselves. […] This is seen by comparing the two tumors treated with saline with and without X-ray radiation. For the treatment with 20 μL of Cu-Cy particles at 5 Gy dose, the tumor size is reduced to about 3 mm in diameter while the untreated tumor size is about 10 mm in diameter.
# Stability in solution = format: physicochemical; settings: aqueous solution and other common solvents
# [2] = tested on: human hepatocellular liver cells (HEPT); experiment: UV light (350 nm) destruction of liver cells, calcein/EthD-1 fluorescence imaging; format: cell-based
# Description: FIGS. 11A-11D depict the comparison of UV light (350 nm) destruction on human hepatocellular liver cells (HEPT) without (top row, FIG. 11A and FIG. 11B) and with (bottom row, FIG. 11C and FIG. 11D) Cu-Cy crystals. […] The scale bar is always 100 μm.
# FIGS. 11A-11D depict the effectiveness of the Cu-Cy material as causing cell death when irradiated with UV light or X-ray. For example, in FIGS. 11A-11D, the fluorescence images of human hepatocellular liver cells were taken before and after the UV light exposure (350 nm, for 2 minutes, from an OLYMPUS IX71 microscope). Calcein and Ethidium homodimer 1 (EthD-1) were used as the stains showing cell alive (green) and death (red) respectively.
# Each of the images was taken right after the staining without further liver cell incubation.
# [3] = tested on: human prostate cancer (PC3) cells; experiment: X-ray (2 Gy) destruction of PC3 cells, fluorescence imaging; format: cell-based; settings: Cu-Cy crystals plus X-ray 2 Gy
# Description: FIGS. 14A-14D depict the comparison of X-ray (2 Gy) destruction on human prostate cancer (PC3) cells without (top row, FIG. 14A and FIG. 14B) and with (bottom row, FIG. 14C and FIG. 14D) Cu-Cy crystals. […] The scale bar is always 100 μm.
# As such, the combination of the disclosed Cu-Cy material and a source of radiation provides an effective method for inducing cell death.
# MCF-7 cells = experiment: MTT cytotoxicity of Cu-Cy crystals in MCF-7 cells; format: cell-based, human; settings: 24 h incubation
# Experimental: The toxicity of Cu-Cy crystals in MCF-7 cells was evaluated using an MTT (3-(4,5-dimethylthiazol-2-yl)-2,5-diphenyltetrazoliumbromide) assay. 2 mg of the Cu-Cy crystals were well ground and sonicated before being dissolved in 1 mL of DI water (control) for the measurement.
# Cytotoxicity was evaluated using the MTT assay. Approximately 2,000 cells/well MCF-7 cells were seeded into 96-well plates and allowed to grow for 48 hours in an incubator (Sanyo, Japan, 5% CO2, 37° C., humidified atmosphere). On the day of the experiment, after removing the culture medium, different volumes of media containing Cu-Cy particles were added to their respective wells and cytotoxicity was evaluated after 24 h of cell incubation
# [4] = tested on: human breast cancer (MCF-7) cells; experiment: X-ray destruction of MCF-7 cells, calcein/EthD-1 fluorescence imaging; format: cell-based
# Description: FIGS. 13A-13D depict the comparison of X-ray (2 Gy) destruction on human breast cancer (MCF-7) cells without (top row, FIG. 14A and FIG. 14B) and with (bottom row, FIG. 14C and FIG. 14D) Cu-Cy crystals. […] The scale bar is always 100 μm.
# As stated herein above, the disclosed Cu-Cy compound also absorbs X-rays and emits a luminescent spectrum. FIG. 13A-13D depicts the MCF-7 cell viabilities by fluorescence images with and without Cu-Cy crystals and with and without X-ray irradiation. As with UV radiation, X-ray irradiation of cells incubated with the disclosed Cu-Cy complex is also an effective method for causing cell death.
# FIGS. 14A-D depict fluorescence images of MCF-7 cells before and after 1 Gy X-ray exposure by an OLYMPUS IX71 microscope. Calcein and ethidiumhomodimer 1 (EthD-1) were used as the stains showing cells alive (green) and dead (red) respectively. Each of the images was taken immediately after staining, without further cell incubation.
# MCF-7 cells were seeded into two 6-well plates (A and B) at 5,000 cells/well and incubated for 48 h at 37° C. in a humidified atmosphere of 5% v/v CO2 at dark. On the day of the experiment, the culture medium was removed and 5 mL medium containing 0 and 40 μg/ml Cu-Cy particles were added to different wells. […] The cells were viewed under an OLYMPUS IX71 fluorescence microscope.
substance,measurement,setting,value
Cu3Cl(SR)2 wherein R is —CH2CH2NH2 [Cu-Cy],cellular death,[1],significant cellular death
same,tumor size (diameter),"MCF-7 tumors; 20 μL Cu-Cy (about 0.8 mg/mL) intra-tumoral, X-ray 5 Gy, day 13",about 3 mm
same,toxicity of Cu-Cy particles themselves in vivo,"MCF-7 tumors; mouse, in vivo",slight toxicity in vivo
same,tumor growth,"MCF-7 tumors; with X-ray radiation 5 Gy, 15 and 20 μL Cu-Cy dosages",greatly reduced
same,tumor size or growth,"MCF-7 tumors; without X-ray, Cu-Cy 10, 15, 20 μL",does not significantly reduce tumor size or growth
same,stability,Stability in solution,stable in aqueous solution
same,cell death,"[2]; Cu-Cy crystals alone, no UV irradiation",does not result in significant cell death
same,cell death,[2]; Cu-Cy crystals plus UV light 350 nm for 2 minutes,significant cell death
same,cell death,[3],Significant cell death
same,cellular viability,MCF-7 cells; Cu-Cy 0.1 μg/ml,about 95%
same,cellular viability,MCF-7 cells; Cu-Cy 200 μg/ml,about 70%
same,cell destruction,[4]; Cu-Cy coupled with X-ray treatment (1 Gy; 2 Gy elsewhere in the source),significant cell destruction
same,cell death,"[4]; Cu-Cy particles alone, no X-ray",little cell death
